Test results published in patent US8802597B2, “Herbicidal pyrimidines” (E I du Pont de Nemours and Company, priority 2003, dated 2014).

Key:
Assay type in all cases: in vivo
[1] = system: common ragweed (Ambrosia elatior); experiment: Test C pre/postemergence; settings: Postemergence
In short: (§1)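 Seeds sown and sprayed preemergence with test compound in non-phytotoxic solvent containing surfactant; postemergence sprays, same formulation, went onto plants 2 to 18 cm tall (1- to 4-leaf stage). Plants held in greenhouse 12 to 14 days, then visually rated against untreated controls on a 0–100 scale (0 no effect, 100 complete control).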

[2] = system: bermudagrass (Cynodon dactylon); experiment: Test C pre/postemergence; settings: Postemergence
In short: as §1

[3] = system: transplanted rice seedlings (Oryza sativa cv. ‘Japonica-M202’); experiment: Test E flooded paddy water application; settings: Flood, 21 days, scale 0 to 100 (0 no effect, 100 complete control); for Plant response rating, Rice, Transplanted: 16 g ai/ha
In short: (§2)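 Greenhouse pots of Tama silt loam with weeds and rice at 2.0–2.5-leaf stage, flooded to 3 cm; compounds applied directly into paddy water, depth maintained. Visual rating versus untreated controls after 21 days, 0 (no effect) to 100 (complete control); 29.5/26.7 °C, 16-h photoperiod.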

[4] = system: ducksalad (Heteranthera limosa); experiment: Test E flooded paddy water application; settings: Flood, 21 days, scale 0 to 100 (0 no effect, 100 complete control); for Plant response rating, Ducksalad: 16 g ai/ha
In short: as §2

[5] = system: water seeded rice seedlings (Oryza sativa cv. ‘Japonica-M202’); experiment: Test E flooded paddy water application; settings: Flood, 21 days, scale 0 to 100 (0 no effect, 100 complete control); for Plant response rating, Rice, Water Seeded: 16 g ai/ha
In short: as §2

[6] = system: early watergrass (Echinochloa oryzoides); experiment: Test E flooded paddy water application; settings: Flood, 21 days, scale 0 to 100 (0 no effect, 100 complete control); for Plant response rating, Watergrass, Early: 16 g ai/ha
In short: as §2

[7] = system: purple redstem (Ammannia coccinea); experiment: Test E flooded paddy water application; settings: Flood, 21 days, scale 0 to 100 (0 no effect, 100 complete control); for Plant response rating, Redstem: 16 g ai/ha
In short: as §2

[8] = 125 g ai/ha, scale 0 to 100 (0 no effect, 100 complete control)

SMILES	Rice, Transplanted plant response rating ([3]; 32 g ai/ha)	Rice, Transplanted plant response rating ([3]; 64 g ai/ha)	Rice, Transplanted plant response rating ([3]; 125 g ai/ha)	Rice, Transplanted plant response rating ([3]; 250 g ai/ha)	Plant response rating, Rice, Transplanted [3]	Ducksalad plant response rating ([4]; 32 g ai/ha)	Ducksalad plant response rating ([4]; 64 g ai/ha)	Ducksalad plant response rating ([4]; 125 g ai/ha)	Ducksalad plant response rating ([4]; 250 g ai/ha)	Rice, Water Seeded plant response rating ([5]; 32 g ai/ha)	Rice, Water Seeded plant response rating ([5]; 125 g ai/ha)	Rice, Water Seeded plant response rating ([5]; 250 g ai/ha)	Watergrass, Early plant response rating ([6]; 32 g ai/ha)	Watergrass, Early plant response rating ([6]; 64 g ai/ha)	Watergrass, Early plant response rating ([6]; 125 g ai/ha)	Watergrass, Early plant response rating ([6]; 250 g ai/ha)	Redstem plant response rating ([7]; 32 g ai/ha)	Redstem plant response rating ([7]; 64 g ai/ha)	Redstem plant response rating ([7]; 125 g ai/ha)	Redstem plant response rating ([7]; 250 g ai/ha)	other results
CCOC(=O)c1nc(-c2ccc(Br)cc2)nc(N)c1Cl [Compound 94, ethyl 6-amino-2-(4-bromophenyl)-5-chloro-4-pyrimidinecarboxylate]	0	10	10	20	0	100	100	100	100	0	10	10	0	0	0	0	65	75	100	100	pest or weed control at 16 g/ha ([1]; Ambrosia artemisiifolia, post-emergence, 16 g ai/ha, read-out: Plant response rating (scale of 0 to 100), Ragweed): 90%; pest or weed control at 31 g/ha ([1]; Ambrosia artemisiifolia, post-emergence, 31 g ai/ha, read-out: Plant response rating (scale of 0 to 100), Ragweed): 90%; pest or weed control at 62 g/ha ([1]; Ambrosia artemisiifolia, post-emergence, 62 g ai/ha, read-out: Plant response rating (scale of 0 to 100), Ragweed): 95%; pest or weed control at 125 g/ha ([1]; Ambrosia artemisiifolia, post-emergence, 125 g ai/ha, scale 0 to 100 (0 no effect, 100 complete control), read-out: Ragweed plant response rating): 100%; pest or weed control at 16 g/ha ([2]; Cynodon dactylon, post-emergence, 16 g ai/ha, read-out: Plant response rating (scale of 0 to 100), Bermudagrass): 60%; pest or weed control at 31 g/ha ([2]; Cynodon dactylon, post-emergence, 31 g ai/ha, read-out: Plant response rating (scale of 0 to 100), Bermudagrass): 70%; pest or weed control at 62 g/ha ([2]; Cynodon dactylon, post-emergence, 62 g ai/ha, scale 0 to 100 (0 no effect, 100 complete control), read-out: Bermudagrass plant response rating): 75%; pest or weed control at 125 g/ha ([2]; Cynodon dactylon, post-emergence, 125 g ai/ha, scale 0 to 100 (0 no effect, 100 complete control), read-out: Bermudagrass plant response rating): 80%; Plant response rating, Ducksalad [4]: 100; Plant response rating, Rice, Water Seeded [5]: 0; Plant response rating, Watergrass, Early [6]: 0; Plant response rating, Redstem [7]: 0
Nc1nc(-c2ccc(Cl)cc2)nc(C(=O)O)c1Br [Compound 88]	0	0	0	0	0	100	100	100	100	0	0	0	0	0	0	50	0	0	0	65	Plant response rating (scale of 0 to 100), Ragweed ([1]; 31 g ai/ha): 90; Plant response rating (scale of 0 to 100), Ragweed ([1]; 62 g ai/ha): 100; Ragweed plant response rating [1, 8]: 100; Plant response rating, Ragweed ([1]; 250 g ai/ha, scale 0 to 100): 100; Plant response rating (scale of 0 to 100), Bermudagrass ([2]; 31 g ai/ha): 50; Bermudagrass plant response rating ([2]; 62 g ai/ha, scale 0 to 100 (0 no effect, 100 complete control)): 70; Bermudagrass plant response rating [2, 8]: 70; Plant response rating, Bermudagrass ([2]; 250 g ai/ha, scale 0 to 100): 80; Plant response rating, Ducksalad [4]: 95; Rice, Water Seeded plant response rating ([5]; 64 g ai/ha): 0; Plant response rating, Rice, Water Seeded [5]: 0; Plant response rating, Watergrass, Early [6]: 0; Plant response rating, Redstem [7]: 0
CCOC(=O)c1nc(-c2ccc3c(c2)OCO3)nc(N)c1Cl [Compound 74]	0	0	0	0	0	100	100	100	100	0	0	0	0	0	0	0	0	0	20	25	Plant response rating, Ducksalad [4]: 100; Rice, Water Seeded plant response rating ([5]; 64 g ai/ha): 0; Plant response rating, Rice, Water Seeded [5]: 0; Plant response rating, Watergrass, Early [6]: 0; Plant response rating, Redstem [7]: 0
COC(=O)c1nc(-c2ccc(I)cc2)nc(N)c1Br [Compound 128]	0	0	0	0	0	100	100	100	100	0	0	0	0	0	0	0	75	80	90	90	Plant response rating, Ducksalad [4]: 95; Rice, Water Seeded plant response rating ([5]; 64 g ai/ha): 0; Plant response rating, Rice, Water Seeded [5]: 0; Plant response rating, Watergrass, Early [6]: 0; Plant response rating, Redstem [7]: 0
COC(=O)c1nc(-c2ccc(C(F)(F)F)cc2)nc(N)c1Cl [Compound 44]	0	0	0	0		100	100	100	100	0	0	0	0	0	0	0	0	10	20	50	Rice, Transplanted plant response rating ([3]; 500 g ai/ha): 0; Ducksalad plant response rating ([4]; 500 g ai/ha): 100; Rice, Water Seeded plant response rating ([5]; 64 g ai/ha): 0; Rice, Water Seeded plant response rating ([5]; 500 g ai/ha): 20; Watergrass, Early plant response rating ([6]; 500 g ai/ha): 0; Redstem plant response rating ([7]; 500 g ai/ha): 75
COC(=O)c1nc(-c2ccc(Br)cc2)nc(N)c1Cl [Compound 96, methyl 6-amino-2-(4-bromophenyl)-5-chloro-4-pyrimidinecarboxylate]	0	0	10	20	0	100	100	100	100	0	10	10	0	0	0	0	85	90	100	100	Plant response rating, Ducksalad [4]: 100; Rice, Water Seeded plant response rating ([5]; 64 g ai/ha): 0; Plant response rating, Rice, Water Seeded [5]: 0; Plant response rating, Watergrass, Early [6]: 0; Plant response rating, Redstem [7]: 0
